# Measurements taken from US20250287947A1, “BIOCIDES AND ADHESIVE BINDING THEREOF” (EBERHARD KARLS UNIVERSITÄT TÜBINGEN MEDIZINISCHE FAKULTÄT, priority 2022, published 2025).
# Where two headings read alike, the source gives them in different places.
# Key:
# [1] = free base; i.e. 0.0033% (w/v) at ph 9.5; cited from earlier work
# [2] = Influence of temperature on the state of matter of Py-C12 at pH 7.0 and pH 9.0 (Example 2); format: physicochemical; design: key to state of matter: X: liquid; o: solid; conditions: for solubility in water / state of matter: 1% (w/v); for state of matter: 1% w/v
# Method: 1% (w/v) 5-N-carboxamido-2-pyrrolidone-N-n-dodecyl propane-1,3-diamine (Py-C12) free base was adjusted with HCl or NaOH to pH values 7.0 and 9.0 and subsequently incubated at temperatures between 2° C. and 60° C. […] (see table 2).
# [3] = Modulation of the state of matter by pH shift using CO2 (Example 8); format: physicochemical
# From the text: 1% (w/v) and 5% (w/v) 5-N-carboxamido-2-pyrrolidone-N-n-dodecyl propane-1,3-diamine (Py-C12) free base solutions in water were gassed with carbon dioxide to reduce the pH from 9.5 to 7. […] After degassing of the CO2-gassed solutions, Py-C12 precipitates due to the increasing pH in a time dependent manner (see FIG. 3, right panel).
# [4] = test system: β-galactosidase-expressing E. coli strain; experiment: Wash resistance and biocidal activity of Py-C12 treated cotton fabric (Example 18); format: cell-based; conditions: treated with 1% (w/v) free base, E. coli 3 days at 37° C.
# Method: In a first step, 1% (w/v) Py-C12 free base in water was warmed to 50° C. to obtain a liquid solution. After incubation with the Py-C12 solution, the samples were cooled to room temperature upon which the liquid Py-C12 was converted into a solid phase and thus immobilized to the material. After drying, samples were washed with water at room temperature 10 and 30 times for 15 minutes each time. Thereafter, all samples were inoculated with a β-galactosidase-expressing E. coli strain and then incubated for 3 days at 37° C.
# [5] = Influence of pH on state of matter of Py-C12 at 20° C. (Example 1); format: physicochemical; design: key to state of matter: X: liquid; o: solid; conditions: for solubility in water / state of matter: 1% (w/v); for state of matter: 1% w/v, 20° C.
# From the text: 1% (w/v) 5-N-carboxamido-2-pyrrolidone-N-n-dodecyl propane-1,3-diamine (Py-C12) free base was adjusted with HCl or NaOH to pH values between 3.0 and 10.0.
# [6] = Influence of temperature on the state of matter of Py-C12 free base at different concentrations in water (Example 4); format: physicochemical; design: key: X: liquid; o: solid
# Method: 5-N-carboxamido-2-pyrrolidone-N-n-dodecyl propane-1,3-diamine (Py-C12) free base at concentrations of 1% (w/v), 2.5% (w/V), 5% (w/V), 10% (w/V), 20% (w/), 30% (W/), 40% (w/V) were incubated at temperatures between 36° C. and 50° C. (see table 4).
smiles,measurement,setting,value
"CCCCCCCCCCCCNCCCNC(=O)C1CCC(=O)N1 (stereo not shown) [Py-C12, 5-N-carboxamido-2-pyrrolidone-N′-n-dodecyl propane-1,3-diamine]",solubility in water,[1],33 µg/mL
same,solubility in water / state of matter,"[2]; pH 7, temperatures between 2° C. and 60° C.",completely soluble
same,solubility in water / state of matter,"[2]; pH 9.0, temperatures between 2° C. and 60° C.",only present in liquid state at the tested temperatures of 50 °C and 60 °C
same,state of matter,"[2]; pH 7.0, 2° C.",X
same,state of matter,"[2]; pH 7.0, 4° C.",X
same,state of matter,"[2]; pH 7.0, 8° C.",X
same,state of matter,"[2]; pH 7.0, 12° C.",X
same,state of matter,"[2]; pH 7.0, 16° C.",X
same,state of matter,"[2]; pH 7.0, 20° C.",X
same,state of matter,"[2]; pH 7.0, 30° C.",X
same,state of matter,"[2]; pH 7.0, 38° C.",X
same,state of matter,"[2]; pH 7.0, 50° C.",X
same,state of matter,"[2]; pH 7.0, 60° C.",X
same,state of matter,"[2]; pH 9.0, 2° C.",o
same,state of matter,"[2]; pH 9.0, 4° C.",o
same,state of matter,"[2]; pH 9.0, 8° C.",o
same,state of matter,"[2]; pH 9.0, 12° C.",o
same,state of matter,"[2]; pH 9.0, 16° C.",o
same,state of matter,"[2]; pH 9.0, 20° C.",o
same,state of matter,"[2]; pH 9.0, 30° C.",o
same,state of matter,"[2]; pH 9.0, 38° C.",o
same,state of matter,"[2]; pH 9.0, 50° C.",X
same,state of matter,"[2]; pH 9.0, 60° C.",X
same,solubility in water,"[3]; 1% and 5% (w/v) free base gassed with CO2, pH from 9.5 to 7, room temperature",completely soluble
same,state of matter after degassing,"[3]; 1% and 5% (w/v), after degassing of CO2, increasing pH, time dependent",precipitates
same,bacterial growth on treated cotton fabric after washing,[4]; washed 10 times with water 15 min,doesn't show any bacterial growth
same,bacterial growth on treated cotton fabric after washing,[4]; washed 30 times with water 15 min,few spots
same,solubility in water / state of matter,"[5]; pH values </=7.8, room temperature",completely soluble
same,solubility in water / state of matter,[5]; pH values >/=8,solid substance
same,state of matter,[5]; pH 3.0,X
same,state of matter,[5]; pH 4.0,X
same,state of matter,[5]; pH 5.0,X
same,state of matter,[5]; pH 6.0,X
same,state of matter,[5]; pH 7.0,X
same,state of matter,[5]; pH 7.8,X
same,state of matter,[5]; pH 8.0,o
same,state of matter,[5]; pH 9.0,o
same,state of matter,[5]; pH 10.0,o
same,state of matter,"[6]; free base 1% (w/v) in water, 36° C.",o
same,state of matter,"[6]; free base 1% (w/v) in water, 38° C.",o
same,state of matter,"[6]; free base 1% (w/v) in water, 40° C.",X
same,state of matter,"[6]; free base 1% (w/v) in water, 42° C.",X
same,state of matter,"[6]; free base 1% (w/v) in water, 44° C.",X
same,state of matter,"[6]; free base 1% (w/v) in water, 46° C.",X
same,state of matter,"[6]; free base 1% (w/v) in water, 48° C.",X
same,state of matter,"[6]; free base 1% (w/v) in water, 50° C.",X
same,state of matter,"[6]; free base 2.5% (w/v) in water, 36° C.",o
same,state of matter,"[6]; free base 2.5% (w/v) in water, 38° C.",o
same,state of matter,"[6]; free base 2.5% (w/v) in water, 40° C.",X
same,state of matter,"[6]; free base 2.5% (w/v) in water, 42° C.",X
same,state of matter,"[6]; free base 2.5% (w/v) in water, 44° C.",X
same,state of matter,"[6]; free base 2.5% (w/v) in water, 46° C.",X
same,state of matter,"[6]; free base 2.5% (w/v) in water, 48° C.",X
same,state of matter,"[6]; free base 2.5% (w/v) in water, 50° C.",X
same,state of matter,"[6]; free base 5% (w/v) in water, 36° C.",o
same,state of matter,"[6]; free base 5% (w/v) in water, 38° C.",o
same,state of matter,"[6]; free base 5% (w/v) in water, 40° C.",X
same,state of matter,"[6]; free base 5% (w/v) in water, 42° C.",X
same,state of matter,"[6]; free base 5% (w/v) in water, 44° C.",X
same,state of matter,"[6]; free base 5% (w/v) in water, 46° C.",X
same,state of matter,"[6]; free base 5% (w/v) in water, 48° C.",X
same,state of matter,"[6]; free base 5% (w/v) in water, 50° C.",X
same,state of matter,"[6]; free base 10% (w/v) in water, 36° C.",o
same,state of matter,"[6]; free base 10% (w/v) in water, 38° C.",o
same,state of matter,"[6]; free base 10% (w/v) in water, 40° C.",X
same,state of matter,"[6]; free base 10% (w/v) in water, 42° C.",X
same,state of matter,"[6]; free base 10% (w/v) in water, 44° C.",X
same,state of matter,"[6]; free base 10% (w/v) in water, 46° C.",X
same,state of matter,"[6]; free base 10% (w/v) in water, 48° C.",X
same,state of matter,"[6]; free base 10% (w/v) in water, 50° C.",X
same,state of matter,"[6]; free base 20% (w/v) in water, 36° C.",o
same,state of matter,"[6]; free base 20% (w/v) in water, 38° C.",o
same,state of matter,"[6]; free base 20% (w/v) in water, 40° C.",o
same,state of matter,"[6]; free base 20% (w/v) in water, 42° C.",o
same,state of matter,"[6]; free base 20% (w/v) in water, 44° C.",X
same,state of matter,"[6]; free base 20% (w/v) in water, 46° C.",X
same,state of matter,"[6]; free base 20% (w/v) in water, 48° C.",X
same,state of matter,"[6]; free base 20% (w/v) in water, 50° C.",X
same,state of matter,"[6]; free base 30% (w/v) in water, 36° C.",o
same,state of matter,"[6]; free base 30% (w/v) in water, 38° C.",o
same,state of matter,"[6]; free base 30% (w/v) in water, 40° C.",o
same,state of matter,"[6]; free base 30% (w/v) in water, 42° C.",o
same,state of matter,"[6]; free base 30% (w/v) in water, 44° C.",X
same,state of matter,"[6]; free base 30% (w/v) in water, 46° C.",X
same,state of matter,"[6]; free base 30% (w/v) in water, 48° C.",X
same,state of matter,"[6]; free base 30% (w/v) in water, 50° C.",X
same,state of matter,"[6]; free base 40% (w/v) in water, 36° C.",o
same,state of matter,"[6]; free base 40% (w/v) in water, 38° C.",o
same,state of matter,"[6]; free base 40% (w/v) in water, 40° C.",o
same,state of matter,"[6]; free base 40% (w/v) in water, 42° C.",o
same,state of matter,"[6]; free base 40% (w/v) in water, 44° C.",X
same,state of matter,"[6]; free base 40% (w/v) in water, 46° C.",X
same,state of matter,"[6]; free base 40% (w/v) in water, 48° C.",X
same,state of matter,"[6]; free base 40% (w/v) in water, 50° C.",X
